Structures are written as SMILES.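 Protocol summary: plate cells (96-well), add compound at 5 concentrations, incubate 48 h, interpolate endpoints linearly. Here, GI50 denotes the concentration required for 50% inhibition of growth.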 Calls of active or inactive are those of the source. Rule as the data show it: active = GI50 up to about 1.1 µM and inactive = higher. Some results are limits rather than exact numbers.

Here are results for ten compounds from ChEMBL document CHEMBL1201862, “PubChem BioAssay data set” (2004).

Common to all, as to assay: NCI tumour cell line growth inhibition, 48 h
The test system of experiment [1] is OVCAR-5.
Experiment [2] has as its system OVCAR-3.
Experiment [3] concerns RXF 393.
The test system of experiment [4] is CAKI-1.
The test system of experiment [5] is 786-0.
Experiment [6] has as its system UACC-62.
The subject of experiment [7] is ACHN.
In experiment [8] the test system is HT-29.
Experiment [9] has as its system MDA-MB-231.
The test system of experiment [10] is MDA-N.
Experiment [11] has as its system Malme-3M.
For experiment [12], the system named is SNB-19.
Experiment [13] deals with SF-295.
The test system of experiment [14] is DU-145.
Experiment [15] has as its system U-251.
For experiment [16], the system named is A549.
Experiment [17] has as its system RPMI-8226.
Experiment [18] has as its system BT-549.
For experiment [19], the system named is OVCAR-8.
Experiment [20] concerns SF-268.

Regarding `O=S(=O)(c1ccc2ccccc2c1)N1CCN(S(=O)(=O)c2ccc3ccccc3c2)CC1`, the GI50 was > 100 µM (inactive) in experiment [1]; 36 µM (inactive) in experiment [2]; > 100 µM (inactive) in [3]; > 100 µM (inactive) in experiment [4]; > 100 µM (inactive) in experiment [5]; > 100 µM (inactive) in experiment [6]. In addition, the GI50 in experiment [7] was > 100 µM (inactive); in experiment [8], > 100 µM (inactive); in experiment [9] it was > 100 µM (inactive); in [10], > 100 µM (inactive); in experiment [11], > 100 µM (inactive); in experiment [12], 69.7 µM (inactive). Besides, the GI50 in experiment [13], in experiment [14], in experiment [15], in experiment [16], in experiment [17] and in experiment [18] was > 100 µM (inactive) throughout. Further, the GI50 in [19] is 93.1 µM (inactive); in experiment [20], > 100 µM (inactive).

Take `COC(=O)c1ccc2cc(O)ccc2c1`: the GI50 is > 100 µM (inactive) in [1]; > 100 µM (inactive) in [2]; > 100 µM (inactive) in experiment [3]; > 100 µM (inactive) in experiment [4]; 89.9 µM (inactive) in [5]; > 100 µM (inactive) in experiment [6]. In addition, the GI50 is 76.6 µM (inactive) in experiment [7]; 47.6 µM (inactive) in [8]; > 100 µM (inactive) in experiment [9]; 78.9 µM (inactive) in experiment [10]; > 100 µM (inactive) in experiment [11]; 79.8 µM (inactive) in [12]. Further, the GI50 in experiment [13] was 53.5 µM (inactive); in [14], > 100 µM (inactive); in [15], 87.7 µM (inactive); in [16] it was 69.2 µM (inactive); in experiment [17], 53.5 µM (inactive); in [18], 79.6 µM (inactive). The GI50 in [19] is 53.2 µM (inactive); in [20] it was 21.5 µM (inactive).

On to `COc1cc(C2c3cc4c(cc3OC(N3CCOCC3)C2C)OCO4)cc(OC)c1OC(C)=O` (stereo not given), for which the GI50 in experiment [1] was 49.1 µM (inactive); in experiment [2] it was 8.07 µM (inactive); in experiment [3] it was 11.6 µM (inactive); in [4], 16.6 µM (inactive); in experiment [5], 15.8 µM (inactive); in [6] it was 5.53 µM (inactive). Moreover, the GI50 in experiment [7] was 26.6 µM (inactive); in [8] it was 11.5 µM (inactive); in [9], 18 µM (inactive); in [10], 1.99 µM (inactive); in [11], 5.9 µM (inactive); in experiment [12], 15.5 µM (inactive). For the same compound, the GI50 in [13] is 4.15 µM (inactive); in experiment [14] it was 26.5 µM (inactive); in experiment [15], 14.3 µM (inactive); in experiment [16] it was 15 µM (inactive); in experiment [17], 26.3 µM (inactive); in experiment [18] it was 7.89 µM (inactive). The GI50 is 26 µM (inactive) in experiment [19] and 39.3 µM (inactive) in experiment [20].

In the case of `Nc1nc(N)c2ncn(-c3ccc(Br)cc3)c2n1`, the GI50 is 20.9 µM (inactive) in experiment [1]; 16.2 µM (inactive) in [2]; 14.2 µM (inactive) in [3]; 7.21 µM (inactive) in [4]; 28.1 µM (inactive) in experiment [5]; 17.1 µM (inactive) in experiment [6]. The GI50 is 13.3 µM (inactive) in [7]; 15.1 µM (inactive) in [8]; 23.8 µM (inactive) in experiment [9]; 60.4 µM (inactive) in [10]; 10.6 µM (inactive) in [11]; > 59.4 µM (inactive) in [12]. Moreover, the GI50 in [13] was 34.4 µM (inactive); in experiment [14] it was 24.5 µM (inactive); in [15] it was 24.9 µM (inactive); in [16] it was 33.1 µM (inactive); in [17] it was 11.4 µM (inactive); in [18], 97.7 µM (inactive). For the same compound, the GI50 in experiment [19] is 14.6 µM (inactive); in [20] it was 15.4 µM (inactive).

In the case of `CCOc1cc(/C=N/c2nc3cc4sc(/N=C/c5ccc(O)c(OCC)c5)nc4cc3s2)ccc1O`, the GI50 in [1], in experiment [2], in [3], in experiment [4], in experiment [5] and in experiment [6] was > 100 µM (inactive) in each case. In addition, the GI50 in experiment [7] was > 100 µM (inactive); in [8], 60.4 µM (inactive); in experiment [9], > 100 µM (inactive); in experiment [10], 93.3 µM (inactive); in [11] it was > 100 µM (inactive); in experiment [12], > 100 µM (inactive). Moreover, the GI50 in experiment [13] was > 100 µM (inactive); in experiment [14], > 100 µM (inactive); in [15], > 100 µM (inactive); in [16], 52.4 µM (inactive); in [17] it was > 100 µM (inactive); in experiment [18], > 100 µM (inactive). Moreover, the GI50 in experiment [19] and in experiment [20] was > 100 µM (inactive) each time.

`O=C1C=CC(=O)c2c1ccc1c3ccccc3n(-c3cccc([N+](=O)[O-])c3)c21`: the GI50 in experiment [1] was > 10 µM (inactive); in experiment [2] it was 2.13 µM (inactive); in experiment [3], 2.38 µM (inactive); in experiment [4] it was 2.55 µM (inactive); in experiment [5], 1.91 µM (inactive); in experiment [6] it was 2.13 µM (inactive). Further, the GI50 is 1.7 µM (inactive) in [7]; > 10 µM (inactive) in [8]; 2.72 µM (inactive) in experiment [9]; 2.2 µM (inactive) in experiment [10]; 1.98 µM (inactive) in experiment [11]; > 10 µM (inactive) in experiment [12]. Further, the GI50 is > 10 µM (inactive) in experiment [13]; > 10 µM (inactive) in experiment [14]; 9.71 µM (inactive) in [15]; > 10 µM (inactive) in [16]; 1 µM (active) in [17]; 1.69 µM (inactive) in experiment [18]. Moreover, the GI50 in experiment [19] was 2.83 µM (inactive); in [20], 5.66 µM (inactive).

In the case of `COC(=O)/C=C1/OC(c2ccc(OC)cc2)=C(Cl)C1=O`, the GI50 in experiment [1] was 17.1 µM (inactive); in [2], 13.3 µM (inactive); in experiment [3] it was 10 µM (inactive); in experiment [4], 13.5 µM (inactive); in [5], 12.1 µM (inactive); in experiment [6], 17.4 µM (inactive). The GI50 was 17.3 µM (inactive) in experiment [7]; 15.4 µM (inactive) in experiment [8]; 12.3 µM (inactive) in [9]; 16.7 µM (inactive) in [10]; 16.2 µM (inactive) in experiment [11]; 23 µM (inactive) in experiment [12]. Besides, the GI50 in experiment [13] was 19.9 µM (inactive); in experiment [14], 18.2 µM (inactive); in experiment [15] it was 9.1 µM (inactive); in [16] it was 23.7 µM (inactive); in experiment [17], 3.95 µM (inactive); in experiment [18] it was 13.3 µM (inactive). The figures for the GI50 in experiment [19] and in experiment [20] were 12.9 µM (inactive) and 16.6 µM (inactive), respectively.

Turning to `CCCNC1=C2C[C@@H](C)C[C@@H](OC)[C@@H](OC(=O)CCCN)[C@H](C)/C=C(\C)[C@@H](OC(N)=O)[C@H](OC)/C=C\C=C(/C)C(=O)NC(=CC1=O)C2=O`, the GI50 was 15.2 µM (inactive) in [1]; 8.61 µM (inactive) in [2]; 11.8 µM (inactive) in experiment [3]; 20.3 µM (inactive) in experiment [4]; 20.8 µM (inactive) in experiment [5]; 13.9 µM (inactive) in experiment [6]. Besides, the GI50 was 19.4 µM (inactive) in experiment [7]; 7.05 µM (inactive) in [8]; 14.1 µM (inactive) in experiment [9]; 10.3 µM (inactive) in experiment [10]; 12.4 µM (inactive) in experiment [11]; 14.6 µM (inactive) in experiment [12]. For the same compound, the GI50 in [13] was 18.7 µM (inactive); in experiment [14], 12.1 µM (inactive); in experiment [15] it was 11.4 µM (inactive); in [16], 15.7 µM (inactive); in experiment [17], 5.94 µM (inactive); in [18] it was 13.2 µM (inactive). In addition, the GI50 in experiment [19] is 20.7 µM (inactive); in experiment [20] it was 15.3 µM (inactive).

As to `CN(C)CC(O)c1ccc(Cl)c2ccccc12` (stereo not given), the GI50 in [1] was > 100 µM (inactive); in experiment [2], > 91 µM (inactive); in experiment [3] it was 22.1 µM (inactive); in experiment [4], 25.6 µM (inactive); in experiment [5], 48.3 µM (inactive); in experiment [6], 17.5 µM (inactive). Moreover, the GI50 in experiment [7] was 45 µM (inactive); in experiment [8], 50 µM (inactive); in experiment [9], 27.5 µM (inactive); in [10], 24.8 µM (inactive); in [11], 32.3 µM (inactive); in [12], > 70 µM (inactive). In addition, the GI50 in experiment [13] was 24.3 µM (inactive); in experiment [14], > 96.8 µM (inactive); in experiment [15], 37.1 µM (inactive); in [16] it was > 77.6 µM (inactive); in experiment [17], 3.08 µM (inactive); in experiment [18], 57.1 µM (inactive). Also, the results for the GI50 in experiment [19] and in experiment [20] were > 90.4 µM (inactive) and 55.6 µM (inactive), respectively.

With `CN(C)/N=N/c1ccc2[nH]c(=O)[nH]c2c1`, the GI50 in experiment [1], in experiment [2], in [3], in experiment [4], in experiment [5] and in experiment [6] was > 100 µM (inactive) in each case. For the same compound, the GI50 in [7], in [8], in experiment [9], in experiment [10], in [11] and in experiment [12] was > 100 µM (inactive) in each case. Moreover, the GI50 in experiment [13], in [14], in [15], in [16], in [17] and in experiment [18] was > 100 µM (inactive) in each case. Moreover, the GI50 in experiment [19] and in [20] was > 100 µM (inactive) each time.
